Reference: patent US12570675B2, “Boronic acid compounds” (LG CHEM, LTD., priority 2020, dated 2026)

Each compound was assayed against Proteasome chymotrypsin-like activity (S26 protein from RPMI8226 cells) (Homo sapiens, UniProt P28074). Details: S26 protein from RPMI8226 cell extract 2 ug/well, substrate 20 uM, 37° C., 90 minutes; read-out: Proteasome chymotrypsin-like activity inhibition IC50.
Type: biochemical
Method: The abilities to inhibit the proteasome activity of the compounds described in the Examples of the present invention and boronic acid drugs were evaluated as follows.
RPMI8226 cells, which is a multiple myeloma cell line, were cultured and then separated by a centrifuge, and washed twice with phosphate buffered saline (PBS). 20 mM of a tris-HCl (pH 8.0) buffer solution was added to the washed cells, and the cells were disrupted by a homogenizer and centrifuged to obtain S26 protein from the supernatant. Suc-Leu-Leu-Val-Tyr-AMC, for a fluorogenic substrate for the chymotrypsin-like activity of the proteasome, and Z-Leu-Leu-Glu-AMC, for a fluorogenic substrate for the caspase-like activity, were purchased from Calbiochem, EMD Millipore and used. Into each well of a 96-well plate (opaque, black round bottom), 20 ul of the S26 protein (final RPMI8226 cell extract concentration: 2 ug/well), 10 ul of S26 proteasome inhibitor serially diluted from 10 uM (final DMSO concentration: 0.5%), and 20 ul of the fluorogenic substrate for the proteasome chymotrypsin-like or caspase-like activity (final concentration: 20 uM) were added and mixed and allowed to react in a 37° C. incubator for 90 minutes. The fluorescence of the fluorogenic substrate was measured by FlexStation II Fluorometer (Molecular Devices). The fluorescence inhibited by the compound diluted at each concentration was measured as the relative percentage value for the amount obtained from the treatment only with the S26 protein and the fluorogenic substrate. IC50 (inhibitory concentration 50) was expressed in terms of a concentration that inhibits 50% of the maximum fluorescence induced by the fluorogenic substrate.

Proteasome chymotrypsin-like activity (S26 protein from RPMI8226 cells), sequence (P28074 60-263 limits assumed): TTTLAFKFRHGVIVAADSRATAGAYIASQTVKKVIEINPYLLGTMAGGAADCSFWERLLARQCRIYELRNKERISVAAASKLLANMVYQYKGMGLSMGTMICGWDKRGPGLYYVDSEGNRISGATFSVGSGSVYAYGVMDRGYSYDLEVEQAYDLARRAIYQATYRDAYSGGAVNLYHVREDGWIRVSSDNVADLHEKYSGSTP

Row | IC50 | SMILES
1 | < 10 nM | COc1cccc(CC2(C(=O)N[C@@H](CC(C)C)B(O)O)CC(CNC(=O)c3cccn4ccnc34)=NO2)c1 (stereo partly drawn) [Example 135, ((1R)-1-(3-((imidazo[1,2-a]pyridin-8-carboxamido)methyl)-5-(3-methoxybenzyl)-4,5-dihydroisoxazol-5-carboxamido)-3-methylbutyl)boronic acid]
2 | < 250 nM | CC(C)C[C@H](NC(=O)C1CC(c2ccnc3ccccc23)=NO1)B(O)O (stereo partly drawn) [Example 23, ((1R)-3-methyl-1-(3-(quinolin-4-yl)-4,5-dihydroisoxazol-5-carboxamido)butyl)boronic acid]
3 | < 10 nM | CC(C)C[C@H](NC(=O)C1(Cc2ccccc2)CC(COCc2cccc(C#N)c2)=NO1)B(O)O (stereo partly shown) [Example 264]
4 | < 500 nM | CC(C)C[C@H](NC(=O)C1CC(Cc2ccc3ccccc3c2)=NO1)B(O)O (stereo partly drawn) [Example 18, ((1R)-3-methyl-1-(3-(naphthalen-2-ylmethyl)-4,5-dihydroisoxazol-5-carboxamido)butyl)boronic acid]
5 | < 25 nM | CC(C)C[C@H](NC(=O)C1(CC(C)C)CC(CNC(=O)c2cc(Cl)ccc2Cl)=NO1)B(O)O (stereo partly drawn) [Example 90, ((1R)-1-(3-((2,5-dichlorobenzamido)methyl)-5-isobutyl-4,5-dihydroisoxazol-5-carboxamido)-3-methylbutyl)boronic acid]
6 | < 10 nM | COc1ccc(C(=O)NCC2=NOC(Cc3ccccc3)(C(=O)N[C@@H](Cc3ccccc3)B(O)O)C2)cc1 (stereo partly drawn) [Example 283, ((1R)-1-(5-benzyl-3-((4-methoxybenzamido)methyl)-4,5-dihydroisoxazol-5-carboxamido)-2-phenylethyl)boronic acid]
7 | < 10 nM | Cc1cccc(C(=O)NCC2=NOC(Cc3ccccc3)(C(=O)N[C@@H](CC(C)C)B(O)O)C2)c1 (stereo partly shown) [Example 307]
8 | < 10 nM | CC(C)[C@H](NC(=O)C1(Cc2ccccc2)CC(CNC(=O)c2cccn3ccnc23)=NO1)B(O)O (stereo partly drawn) [Example 298, ((1R)-1-(5-benzyl-3-((imidazo[1,2-a]pyridin-8-carboxamido)methyl)-4,5-dihydroisoxazol-5-carboxamido)-2-methylpropyl)boronic acid]
9 | < 25 nM | CC[C@H](NC(=O)C1(Cc2ccccc2)CC(CNC(=O)c2cccc(Cl)n2)=NO1)B(O)O (stereo partly drawn) [Example 318, ((1R)-1-(5-benzyl-3-((6-chloropicolinamido)methyl)-4,5-dihydroisoxazol-5-carboxamido)propyl)boronic acid]
10 | < 1000 nM | CC(C)C[C@H](NC(=O)C1CC(c2cnccn2)=NO1)B(O)O (stereo partly drawn) [Example 2, ((1R)-3-methyl-1-(3-(pyrazin-2-yl)-4,5-dihydroisoxazol-5-carboxamido)butyl)boronic acid]
11 | < 50 nM | CC(C)C[C@H](NC(=O)C1CC(c2ccc(-c3ccccn3)cc2)=NO1)B(O)O (stereo partly drawn) [Example 26, ((1R)-3-methyl-1-(3-(4-(pyridin-2-yl)phenyl)-4,5-dihydroisoxazol-5-carboxamido)butyl)boronic acid]
12 | < 250 nM | CC(C)C[C@H](NC(=O)C1CC(c2ccc3ccccc3n2)=NO1)B(O)O (stereo partly drawn) [Example 21, ((1R)-3-methyl-1-(3-(quinolin-2-yl)-4,5-dihydroisoxazol-5-carboxamido)butyl)boronic acid]
13 | < 25 nM | CC(C)C[C@H](NC(=O)C1(Cc2ccccc2)CC(CNC(=O)c2ccn[nH]2)=NO1)B(O)O (stereo partly drawn) [Example 169, ((1R)-1-(3-((1H-pyrazol-5-carboxamido)methyl)-5-benzyl-4,5-dihydroisoxazol-5-carboxamido)-3-methylbutyl)boronic acid]
14 | < 100 nM | CC(C)C[C@H](NC(=O)C1CC([C@H](CC(C)C)NC(=O)c2ccccc2)=NO1)B(O)O (stereo partly drawn) [Example 104, ((1R)-1-(3-((S)-1-benzamido-3-methylbutyl)-4,5-dihydroisoxazol-5-carboxamido)-3-methylbutyl)boronic acid]
15 | < 10 nM | O=C(N[C@@H](Cc1ccccc1)B(O)O)C1(Cc2ccccc2)CC(COc2cccc3ccccc23)=NO1 (stereo partly drawn) [Example 279, ((1R)-1-(5-benzyl-3-((naphthalen-1-yloxy)methyl)-4,5-dihydroisoxazol-5-carboxamido)-2-phenylethyl)boronic acid]
16 | < 25 nM | CC(C)C[C@H](NC(=O)C1(Cc2ccccc2)CC(CNC(=O)c2cccc3ncnn23)=NO1)B(O)O (stereo partly shown) [Example 312]

Row | IC50 | SMILES
17 | < 10 nM | COc1cccc(CC2(C(=O)N[C@@H](CC(C)C)B(O)O)CC(CNC(=O)c3ccnn3C(C)C)=NO2)c1 (stereo partly drawn) [Example 239, ((1R)-1-(3-((1-isopropyl-1H-pyrazol-5-carboxamido)methyl)-5-(3-methoxybenzyl)-4,5-dihydroisoxazol-5-carboxamido)-3-methylbutyl)boronic acid]
18 | < 250 nM | CC(C)C[C@H](NC(=O)C1(Cc2ccccc2)CC(c2cccc(-c3nccc4ccccc34)c2)=NO1)B(O)O (stereo partly drawn) [Example 36, ((1R)-1-(5-benzyl-3-(3-(isoquinolin-1-yl)phenyl)-4,5-dihydroisoxazol-5-carboxamido)-3-methylbutyl)boronic acid]
19 | < 10 nM | CC(C)C[C@H](NC(=O)C1(Cc2ccccc2)CC(CNC(=O)c2cc(F)c(F)cc2Cl)=NO1)B(O)O (stereo partly drawn) [Example 163, ((1R)-1-(5-benzyl-3-((2-chloro-4,5-difluorobenzamido)methyl)-4,5-dihydroisoxazol-5-carboxamido)-3-methylbutyl)boronic acid]
20 | < 250 nM | CC(C)C[C@H](NC(=O)C1CC(c2ccc(Oc3ccccn3)cc2)=NO1)B(O)O (stereo partly drawn) [Example 42, ((1R)-3-methyl-1-(3-(4-(pyridin-2-yloxy)phenyl)-4,5-dihydroisoxazol-5-carboxamido)butyl)boronic acid]
21 | < 50 nM | CC(C)C[C@H](NC(=O)C1(C2(c3ccccc3)CC2)CC(CNC(=O)c2cccn3ccnc23)=NO1)B(O)O (stereo partly drawn) [Example 181, ((1R)-1-(3-((imidazo[1,2-a]pyridin-8-carboxamido)methyl)-5-(1-phenylcyclopropyl)-4,5-dihydroisoxazol-5-carboxamido)-3-methylbutyl)boronic acid]
22 | < 50 nM | CC(C)C[C@H](NC(=O)C1(C2(c3ccccc3)CC2)CC(CNC(=O)c2nccc3ccccc23)=NO1)B(O)O (stereo partly drawn) [Example 180, ((1R)-1-(3-((isoquinolin-1-carboxamido)methyl)-5-(1-phenylcyclopropyl)-4,5-dihydroisoxazol-5-carboxamido)-3-methylbutyl)boronic acid]
23 | < 10 nM | CC(C)C[C@H](NC(=O)C1(Cc2ccccc2)CC(CNC(=O)c2ccnc3c2ccn3C)=NO1)B(O)O (stereo partly drawn) [Example 210, ((1R)-1-(5-benzyl-3-((1-methyl-1H-pyrrolo[2,3-b]pyridin-4-carboxamido)methyl)-4,5-dihydroisoxazol-5-carboxamido)-3-methylbutyl)boronic acid]
24 | < 50 nM | CC(C)C[C@H](NC(=O)C1CC(c2ccc(-c3cccnc3)cc2)=NO1)B(O)O (stereo partly drawn) [Example 31, ((1R)-3-methyl-1-(3-(4-(pyridin-3-yl)phenyl)-4,5-dihydroisoxazol-5-carboxamido)butyl)boronic acid]
25 | < 10 nM | CC(C)C[C@H](NC(=O)C1(Cc2ccccc2Cl)CC(CNC(=O)c2nccc3ccccc23)=NO1)B(O)O (stereo partly drawn) [Example 102, ((1R)-1-(5-(2-chlorobenzyl)-3-((isoquinolin-1-carboxamido)methyl)-4,5-dihydroisoxazol-5-carboxamido)-3-methylbutyl)boronic acid]
26 | < 500 nM | CC(C)C[C@H](NC(=O)C1CC(c2ccccc2)=NO1)B(O)O (stereo partly drawn) [Example 1, ((1R)-3-methyl-1-(3-phenyl-4,5-dihydroisoxazol-5-carboxamido)butyl)boronic acid]
27 | < 10 nM | Cc1nc(COCC2=NOC(Cc3ccccc3)(C(=O)N[C@@H](CC(C)C)B(O)O)C2)c(Cl)s1 (stereo partly drawn) [Example 50, ((1R)-1-(5-benzyl-3-(((5-chloro-2-methylthiazol-4-yl)methoxy)methyl)-4,5-dihydroisoxazol-5-carboxamido)-3-methylbutyl)boronic acid]
28 | < 10 nM | CC(C)C[C@H](NC(=O)C1(Cc2ccccc2)CC(CNC(=O)c2cc3ccccc3cn2)=NO1)B(O)O (stereo partly drawn) [Example 121, ((1R)-1-(5-benzyl-3-((isoquinolin-3-carboxamido)methyl)-4,5-dihydroisoxazol-5-carboxamido)-3-methylbutyl)boronic acid]
29 | < 10 nM | Cc1cccc(CC2(C(=O)N[C@@H](CC(C)C)B(O)O)CC(CNC(=O)c3cc(-c4ccccn4)nn3C(C)C)=NO2)c1 (stereo partly drawn) [Example 245, ((1R)-1-(3-((1-isopropyl-3-(pyridin-2-yl)-1H-pyrazol-5-carboxamido)methyl)-5-(3-methylbenzyl)-4,5-dihydroisoxazol-5-carboxamido)-3-methylbutyl)boronic acid]
30 | < 250 nM | CC(C)C[C@H](NC(=O)C1CC(c2ccc(C(C)(C)C)cc2)=NO1)B(O)O (stereo partly drawn) [Example 15, ((1R)-1-(3-(4-(tert-butyl)phenyl)-4,5-dihydroisoxazol-5-carboxamido)-3-methylbutyl)boronic acid]
31 | < 10 nM | CC(C)C[C@H](NC(=O)C1(Cc2ccccc2)CC(CNC(=O)c2cccc3nccn23)=NO1)B(O)O (stereo partly shown) [Example 301]
